Read-outs that look alike come from different tables or passages of the source.
Key:
Type in all cases: physicochemical
[1] = Gelling in aqueous media; conditions: in water or aqueous buffers across the pH range
Procedure: Voruciclib can form a gel when dissolved in various media, depending on the other chemicals present. […] In general, voruciclib was more prone to gel at suspension concentrations >5 mg/mL and solubilities >0.5 mg/mL.

[2] = Hygroscopicity of voruciclib malonate
[3] = pH range solubility in biorelevant media
Procedure: In general, voruciclib was more prone to gel at suspension concentrations >5 mg/mL and solubilities >0.5 mg/mL.

[4] = pKa of voruciclib malonate
[5] = Stability of voruciclib malonate Batch 02MEI06-01-107; parameters: key to Organic Impurities by HPLC: RRT 1.05: —: below reporting threshold
Text: The formulation contains colloidal silicon dioxide. The manufacturing process for this batch was similar to that described in Example 10. Stability study samples were packaged in the containers described in Example 9.

gel formation [1]: does not form a gel
Hygroscopicity [2]: Non-hygroscopic
Hygroscopicity ([2]; listed as Form 1): non-hygroscopic
solubility ([3]; FEDGAS biorelevant medium, pH 3, fassgf or other biorelevant, thermodynamic from solid, pH 3.0 (FEDGAS), late stage of stomach emptying, read-out: Solubility): 11300 µg/mL
solubility ([3]; FEDGAS biorelevant medium, pH 4.5, fassgf or other biorelevant, thermodynamic from solid, pH 4.5 (FEDGAS), mid stage of stomach emptying, read-out: Solubility): 4350 µg/mL
solubility ([3]; FEDGAS biorelevant medium, pH 6, fassgf or other biorelevant, thermodynamic from solid, pH 6.0 (FEDGAS), early stage of stomach emptying, read-out: Solubility): 2880 µg/mL
solubility ([3]; FaSSGF biorelevant medium, pH 1.6, fassgf or other biorelevant, thermodynamic from solid, pH 1.6 (FaSSGF), Stomach after glass of water, tested in duplicate, read-out: Solubility): > 13400 µg/mL
solubility ([3]; FaSSIF biorelevant medium, pH 6.5, fassif, thermodynamic from solid, pH 6.5 (FaSSIF), Upper intestine after a glass of water, read-out: Solubility): 230 µg/mL
solubility ([3]; FeSSIF biorelevant medium, pH 5, fessif, thermodynamic from solid, pH 5.0 (FeSSIF), Upper intestine after a meal, read-out: Solubility): < 4 µg/mL
solubility ([3]; pH 1.6 (FaSSGF), Stomach after glass of water, tested in duplicate): 11050 µg/mL
pKa ([4]; first value listed): 6.46
pKa ([4]; second value listed): 9.59
pKa ([4]; third value listed): 12.1
changes observed after storage ([5]; 6-months at 25° C./60% RH or 6-months at 40° C./75% RH): No significant changes
Appearance by visual inspection ([5]; 25° C./60% RH, 1 months): Light
Assay by HPLC (% w/w, as is) ([5]; 25° C./60% RH, 1 months): 96.8 % w/w
Organic Impurities by HPLC: RRT 0.83 ([5]; 25° C./60% RH, 1 months): 0.06 % area
Organic Impurities by HPLC: RRT 0.97 ([5]; 25° C./60% RH, 1 months): 0.55 % area
Organic Impurities by HPLC: RRT 0.99 ([5]; 25° C./60% RH, 1 months): 0.59 % area
Organic Impurities by HPLC: RRT 1.05 ([5]; 25° C./60% RH, 1 months): 0.09 % area
Organic Impurities by HPLC: RRT 1.06 ([5]; 25° C./60% RH, 1 months): 0.08 % area
Purity by HPLC ([5]; 25° C./60% RH, 1 months): 98.6 % area
Total Impurities ([5]; 25° C./60% RH, 1 months): 1.38 % area
Water Content by KF ([5]; 25° C./60% RH, 1 months): 0.47 % w/w
XRPD ([5]; 25° C./60% RH, 1 months): Crystalline
Appearance by visual inspection ([5]; 25° C./60% RH, 3 months): Light
Assay by HPLC (% w/w, as is) ([5]; 25° C./60% RH, 3 months): 97.3 % w/w
Organic Impurities by HPLC: RRT 0.83 ([5]; 25° C./60% RH, 3 months): 0.06 % area
Organic Impurities by HPLC: RRT 0.97 ([5]; 25° C./60% RH, 3 months): 0.56 % area
Organic Impurities by HPLC: RRT 0.99 ([5]; 25° C./60% RH, 3 months): 0.59 % area
Organic Impurities by HPLC: RRT 1.05 ([5]; 25° C./60% RH, 3 months): 0.06 % area
Organic Impurities by HPLC: RRT 1.06 ([5]; 25° C./60% RH, 3 months): 0.08 % area
Purity by HPLC ([5]; 25° C./60% RH, 3 months): 98.7 % area
Total Impurities ([5]; 25° C./60% RH, 3 months): 1.36 % area
Water Content by KF ([5]; 25° C./60% RH, 3 months): 0.18 % w/w
XRPD ([5]; 25° C./60% RH, 3 months): Crystalline
Appearance by visual inspection ([5]; 25° C./60% RH, 6 months): Light
Assay by HPLC (% w/w, as is) ([5]; 25° C./60% RH, 6 months): 97.7 % w/w
Organic Impurities by HPLC: RRT 0.83 ([5]; 25° C./60% RH, 6 months): 0.05 % area
Organic Impurities by HPLC: RRT 0.97 ([5]; 25° C./60% RH, 6 months): 0.52 % area
Organic Impurities by HPLC: RRT 0.99 ([5]; 25° C./60% RH, 6 months): 0.58 % area
Organic Impurities by HPLC: RRT 1.05 ([5]; 25° C./60% RH, 6 months): 0.05 % area
Organic Impurities by HPLC: RRT 1.06 ([5]; 25° C./60% RH, 6 months): 0.08 % area
Purity by HPLC ([5]; 25° C./60% RH, 6 months): 98.7 % area
Total Impurities ([5]; 25° C./60% RH, 6 months): 1.32 % area
Water Content by KF ([5]; 25° C./60% RH, 6 months): 0.36 % w/w
XRPD ([5]; 25° C./60% RH, 6 months): Crystalline
Appearance by visual inspection ([5]; 25° C./60% RH, Initial): Pale
Assay by HPLC (% w/w, as is) ([5]; 25° C./60% RH, Initial): 96.9 % w/w
Organic Impurities by HPLC: RRT 0.83 ([5]; 25° C./60% RH, Initial): 0.06 % area
Organic Impurities by HPLC: RRT 0.97 ([5]; 25° C./60% RH, Initial): 0.55 % area
Organic Impurities by HPLC: RRT 0.99 ([5]; 25° C./60% RH, Initial): 0.62 % area
Organic Impurities by HPLC: RRT 1.05 ([5]; 25° C./60% RH, Initial): 0.15 % area
Organic Impurities by HPLC: RRT 1.06 ([5]; 25° C./60% RH, Initial): 0.11 % area
Purity by HPLC ([5]; 25° C./60% RH, Initial): 98.5 % area
Total Impurities ([5]; 25° C./60% RH, Initial): 1.53 % area
Water Content by KF ([5]; 25° C./60% RH, Initial): 0.56 % w/w
XRPD ([5]; 25° C./60% RH, Initial): Crystalline
Appearance ([5]; 40° C./75% RH, 1 months): Light
Assay by HPLC (% w/w. as is) ([5]; 40° C./75% RH, 1 months): 96.4 % w/w
Organic Impurities by HPLC: RRT 0.83 ([5]; 40° C./75% RH, 1 months): 0.06 % Area
Organic Impurities by HPLC: RRT 0.97 ([5]; 40° C./75% RH, 1 months): 0.56 % Area
Organic Impurities by HPLC: RRT 0.99 ([5]; 40° C./75% RH, 1 months): 0.58 % Area
Organic Impurities by HPLC: RRT 1.05 ([5]; 40° C./75% RH, 1 months): 0.06 % Area
Organic Impurities by HPLC: RRT 1.06 ([5]; 40° C./75% RH, 1 months): 0.08 % Area
Purity by HPLC ([5]; 40° C./75% RH, 1 months): 98.7 % area
Total Impurities ([5]; 40° C./75% RH, 1 months): 1.33 % area
Water Content by KF ([5]; 40° C./75% RH, 1 months): 0.44 % w/w
XRPD ([5]; 40° C./75% RH, 1 months): Crystalline
Appearance ([5]; 40° C./75% RH, 3 months): Light
Assay by HPLC (% w/w. as is) ([5]; 40° C./75% RH, 3 months): 97.3 % w/w
Organic Impurities by HPLC: RRT 0.83 ([5]; 40° C./75% RH, 3 months): 0.06 % Area
Organic Impurities by HPLC: RRT 0.97 ([5]; 40° C./75% RH, 3 months): 0.56 % Area
Organic Impurities by HPLC: RRT 0.99 ([5]; 40° C./75% RH, 3 months): 0.59 % Area
Organic Impurities by HPLC: RRT 1.05 ([5]; 40° C./75% RH, 3 months): —
Organic Impurities by HPLC: RRT 1.06 ([5]; 40° C./75% RH, 3 months): 0.08 % Area
Purity by HPLC ([5]; 40° C./75% RH, 3 months): 98.7 % area
Total Impurities ([5]; 40° C./75% RH, 3 months): 1.29 % area
Water Content by KF ([5]; 40° C./75% RH, 3 months): 0.14 % w/w
XRPD ([5]; 40° C./75% RH, 3 months): Crystalline
Appearance ([5]; 40° C./75% RH, 6 months): Light
Assay by HPLC (% w/w. as is) ([5]; 40° C./75% RH, 6 months): 97.5 % w/w
Organic Impurities by HPLC: RRT 0.83 ([5]; 40° C./75% RH, 6 months): 0.05 % Area
Organic Impurities by HPLC: RRT 0.97 ([5]; 40° C./75% RH, 6 months): 0.52 % Area
Organic Impurities by HPLC: RRT 0.99 ([5]; 40° C./75% RH, 6 months): 0.58 % Area
Organic Impurities by HPLC: RRT 1.05 ([5]; 40° C./75% RH, 6 months): —
Organic Impurities by HPLC: RRT 1.06 ([5]; 40° C./75% RH, 6 months): 0.08 % Area
Purity by HPLC ([5]; 40° C./75% RH, 6 months): 98.8 % area
Total Impurities ([5]; 40° C./75% RH, 6 months): 1.24 % area
Water Content by KF ([5]; 40° C./75% RH, 6 months): 0.46 % w/w
XRPD ([5]; 40° C./75% RH, 6 months): Crystalline
Appearance ([5]; 40° C./75% RH, Initial): Pale
Assay by HPLC (% w/w. as is) ([5]; 40° C./75% RH, Initial): 96.9 % w/w
Organic Impurities by HPLC: RRT 0.83 ([5]; 40° C./75% RH, Initial): 0.06 % Area
Organic Impurities by HPLC: RRT 0.97 ([5]; 40° C./75% RH, Initial): 0.55 % Area
Organic Impurities by HPLC: RRT 0.99 ([5]; 40° C./75% RH, Initial): 0.62 % Area
Organic Impurities by HPLC: RRT 1.05 ([5]; 40° C./75% RH, Initial): 0.15 % Area
Organic Impurities by HPLC: RRT 1.06 ([5]; 40° C./75% RH, Initial): 0.11 % Area
Purity by HPLC ([5]; 40° C./75% RH, Initial): 98.5 % area
Total Impurities ([5]; 40° C./75% RH, Initial): 1.53 % area
Water Content by KF ([5]; 40° C./75% RH, Initial): 0.56 % w/w
XRPD ([5]; 40° C./75% RH, Initial): Crystalline
SMILES: CN1CC[C@@H](c2c(O)cc(O)c3c(=O)cc(-c4ccc(C(F)(F)F)cc4Cl)oc23)[C@@H]1CO.O=C(O)CC(=O)O [Voruciclib Malonate, (2R,3S)-3-(2-(2-chloro-4-(trifluoromethyl)phenyl)-5,7-dihydroxy-4-oxo-4H-chromen-8-yl)-2-(hydroxymethyl)-1-methylpyrrolidin-1-ium-2-carboxyacetate]

— patent US20240197680A1, “VORUCICLIB DOSING REGIMENS AND METHODS OF TREATMENT INCLUDING THE SAME” (MEI Pharma, Inc., priority 2021, published 2024)
